This is an account of results in patent US20250313530A1, “SMALL MOLECULE INHIBITORS OF INTERLEUKIN-4 AND USES THEREOF” (Trustees of Boston University, priority 2024, published 2025).

“And” between values parts separate entries of the source, which are not always exact repeats. Equal values may be shown once. Read-outs that look alike come from different tables or passages of the source. Where only a bound is given, the exact number is not on record here.

As usually defined, the EC50 is the concentration that produces a half-maximal response. By inhibition is commonly meant the drop in the measured response relative to a control, in per cent. As a reminder, the Hill coefficient is a measure of the steepness of the concentration-response curve. As a reminder, the Kd is the equilibrium constant for the complex coming apart. A lower Kd goes with higher affinity.

For data set [1], the system named is IL-4 induced pSTAT-6 in THP-1 cells. Kind of data set: THP-1 pSTAT-6 immunofluorescence.
Procedure: IL-4 and analogs or vehicle (DMEM with 2% DMSO) were preincubated for 2 hours at 37° C. After the incubation, IL-4 or IL-4/analogs were incubated with THP-1 cells for 30 min at 37° C./5% CO2. Incubated cells were centrifuged for 5 min at 250×g. After aspirating the supernatant, cells were resuspended in 1×PBS and plated into a MatTek dish coated with Cell Tak adhesive for 30 minutes at room temperature. Cells were fixed with 4% Paraformaldehyde for 1 hour at room temperature. Cells were rinsed twice with 1×PBS and then permeabilized with 0.5% Triton-X for 1 hour at room temperature. Cells were rinsed again with 1×PBS, and blocked for an hour in superblock with 0.05% Tween-20, rinsed twice, and then incubated with anti-pSTAT-6 1:100 diluted in superblock 0.05% Tween-20 overnight at 4° C. (parafilmed to avoid evaporation). Cells were rinsed thrice with 1×PBS and then incubated with Mouse anti-rabbit IgG(H+L) Secondary Antibody-Alexa Fluor 647 for 1 hour at room temperature in the dark. […] Cells were rinsed twice with 1×PBS and left in 1 ml of 1×PBS. Confocal Imaging was done using an Olympus FV10i and images were processed using FIJI.
The next data set can be described thus: Mouse plasma stability. Format: in vitro ADME.
Another data set is described as follows: Human plasma stability. The data set is classed as in vitro ADME.
Data set [2] can be described thus: Mouse hepatic microsome stability. The data set is classed as in vitro ADME. The note with it: mouse hepatic microsomes.
Data set [3] relates to IL-4 induced STAT-6 phosphorylation in THP-1 monocytes (type II IL-4 receptor). Kind of data set: THP-1 STAT-6 phosphorylation assay (western blot). Format: cell-based. The method, then:
THP-1 cells were received as a gift from the laboratory of Dr. Mark Grinstaff and maintained in RMPI-1640 with […] heat-inactivated Fetal Bovine Serum and 50 μM beta-mercaptoethanol. Cells used for assays were between passages 6 and 10, 10 ng/mL IL-4 was preincubated with experimental sample (vehicle or analogs) for 30 minutes at 37° C. 1 mL of each solution was then added to a pellet of 2 E6 THP-1 cells and pipetted up and down. THP-1 cells were incubated for 30 minutes in the incubator at 37 C/5% CO2. Cells were then spun down and lysed with 200 μL ice-cold RIPA buffer complete with phosphatase and protease inhibitors. Cell lysates were incubated on ice for 30 minutes, spun down and the supernatants were stored at −20° C. until western blot analysis. Undiluted cell lysates were run on SDS-PAGE and transferred to Immunoblot PVDF membrane using Biorad equipment. Membranes were incubated with 1:1000 primary antibody overnight at 4° C. Membranes were then incubated with 1:50,000 dilution secondary for 1 hour at room temperature. Membranes were then exposed to Femto ECL for 5 minutes and imaged using a Bio-Rad Gel Doc. The brightness/contrast was adjusted in FIJI and the area under the curve of each lane was quantified. The phosphorylated STAT-6 to STAT-6 ratio was calculated and normalized to the amount of total STAT-6. The data was plotted and analyzed using GraphPad Prism 9.2.0′.
On the technique in general: Immunoblotting shows a protein as a band on a membrane.

In data set [4] the target is T1, IL-4 (Homo sapiens, UniProt P05112).
T1 construct: purchased Acros Biosystems IL4-H4218; host or cells: HEK-293
T1 sequence (P05112 25-153): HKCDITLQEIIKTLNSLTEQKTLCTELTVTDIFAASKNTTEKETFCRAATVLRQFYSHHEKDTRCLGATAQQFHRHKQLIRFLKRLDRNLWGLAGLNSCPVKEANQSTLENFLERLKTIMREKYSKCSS
Nature of the data set: HEK-Blue IL-4/IL-13 reporter assay, IL-4 inhibition. Format: cell-based. As to conditions: for EC50: dose response, IL-4 inhibition. (In general: A reporter such as luciferase makes a cellular process visible.)

Data set [5] deals with T1, IL-4. Described as above. The data set is classed as cell-based. The note with it: control: cells with 10 μM compound only, no IL-4.
Another data set has as its target T2, soluble IL-4 (Homo sapiens, UniProt P05112).
T2 sequence (P05112 25-153): T1 sequence (P05112 25-153)
Kind of data set: Differential scanning fluorimetry (thermal shift), IL-4. Format: binding. As to the method:
DSF was performed using BioRad CFX384.
(In general: Differential scanning fluorimetry follows unfolding on heating by fluorescence.)

Another data set relates to B16-F10 cells. Nature of the data set: In vitro cytotoxicity (CellTiter-Glo). Format: cell-based. As to conditions: up to 25 μM. As to the method:
CellTiter-Glo 2.0 purchased from Promega G9242) was used to measure cell viability with the Victor-3 plate reader (PerkinElmer) after 24 hours in concentrations of compound up to 25 μM. Vehicle was used as a negative control for both cytotoxicity and growth inhibition, methanol was used as a positive control for cytotoxicity, and 1% FBS was used as a positive control for growth inhibition.

For data set [6], the target named is T1, IL-4. Kind of data set: Surface plasmon resonance binding to IL-4. As to the method: Surface plasmon resonance was performed on a Biacore S200. Series S Sensor chips were purchased from Cytiva. The running buffer was 1×PBS pH 7.40 with 2% DMSO and 0.1% Tween-20 and the flow rate was kept at 50 μL/min. The SA chip was first activated with 120 μL of 1 M NaCl in 50 mM NaOH followed by a wash of 50% Isopropanol in 1 M NaCl and 50 mM NaOH, 200 μl of a 1 mg/ml solution of Avi-tagged IL-4 in DMSO-free buffer was used to immobilize 7073 RU on the chip surface using the BiacoreS200 software, 100 μl of 50 mM Biocytin was used to block all biotin slides on the sensor chip with manual setting. The system was then primed with running buffer for 7 minutes. […] Analog 15 was diluted in the running buffer and injected for 300 seconds cycles, in an ascending order. The dissociation phase was 600 seconds long. Sensorgram figures were created by exporting the raw data and plotting in Graphpad Prism 9.2.0^48.

`N#Cc1c(-c2ccc(O)c(O)c2)cc(-c2ccccc2)[nH]c1=N` [Compound 15, 4-(3,4-dihydroxyphenyl)-2-imino-6-phenyl-1,2-dihydropyridine-3-carbonitrile]: the “STAT-6 phosphorylation by immunofluorescence” value in data set [1] (50 nM) is listed as “reduced STAT-6 phosphorylation”; in [1] (500 nM), “complete inhibition of phosphorylation”. For the same molecule, in “Mouse plasma stability”, the “Mouse plasma stability (% remaining after 3 hours)” value came out at 94.3%. The “Human plasma stability (% remaining after 3 hours)” value in the data set “Human plasma stability” is on record as 97.4%. Also, the “Mouse hepatic microsome stability (% remaining after 1 hour)” value in [2] came out at 30.3%. Besides, the EC50 is 49.6 nM in data set [3] (Homo sapiens, THP-1 monocytes, western blot, normalized to STAT-6, read-out: EC50 of inhibition of STAT-6 phosphorylation); 850 nM and 550 nM at IL-4 [4] (HEK Blue IL-4/IL-13 reporter assay, read-out: EC50); 552 nM on IL-4 [4] (values in text, read-out: potency (EC50 of inhibition)). The STAT-6 levels result in data set [3] (total STAT-6, THP-1 cells) is given as “not impacted”. For the same molecule, the inhibition at 10 µM at IL-4 [4] (HEK-Blue, 10 μM, IL-4, HEK Blue IL-4/IL-13 reporter assay) was found to be 95.5%. At IL-4 [4] (fit of dose response in HEK Blue IL-4/IL-13 reporter assay), the Hill coefficient is listed as 1.49±0.15. Besides, the Abs650 at IL-4 [5] was 0.06345 ± 0.001036. In addition, the ΔTm at 2 µM on soluble IL-4 (IL-4 shift minus IL-2 shift, 2 μM, read-out: thermal shift for IL-4 stronger than for IL-2 by) was over 1 °C; at soluble IL-4 (soluble IL-4, 2 μM compound, 0.1% DMSO, read-out: Tm shift), 1.75 °C. The “Cytotoxicity in B16-F10 cells (24 hours)” value in the data set with B16-F10 cells is “no toxicity”; with B16-F10 cells (listed as Analog 15), “n.s. < 25 μM”. For the same molecule, the kd at IL-4 [6] (SPR kinetic binding constant) was 8.34 e−04 s^−1. At IL-4 [6] (SPR steady-state affinity analysis), the Kd was 31.9 nM. For the same molecule, the kon on IL-4 [6] (pH 7.4, read-out: ka) is 26200 M⁻¹ s⁻¹.
